In patent US8263056B2, “Dyed-hair-binding peptides and peptide-based hair reagents for personal care” (E I du Pont de Nemours and Company, priority 2007, dated 2012):

Conditions: read-out: EC50 (concentration at which half the maximum binding was observed by measuring A405 nm), binding to dyed hair, ELISA-type assay
From the text: Each selection round was monitored for enrichment of phage displaying dyed-hair-binding peptides using ELISA-like assays in the deep well plates performed using an anti-M13 phage antibody conjugated to horseradish-peroxidase, followed by the addition of a chromogenic agent ABTS (2,2′-azino-bis(3-ethylbenzthiazoline-6-sulphonic acid)). The plates were read at 405 nm.
Relative binding strengths of the phage can also be determined by testing serial dilutions of the phage for binding to dyed hair in an ELISA. For example, serial dilutions of the display-selected clones were exposed to dyed hair in an ELISA. […] Primers against the phage vector sequence (available from New England BIOLABS®) that flank the insertion site were used to determine the DNA sequence encoding the peptide for the phage in each group. […] The DNA sequences encoding dyed-hair-binding peptides isolated were determined. Peptides Dye-1 through Dye-16 were those sequenced after round 4 of selection. Peptides Dye 17 through Dye-28 were those isolated and sequenced after a fifth round of selection.
The ELISA-type assay described in Example 1 was used to evaluate the affinity of dyed-hair-binding peptides for dyed hair. All of the synthesize peptides in Table 2 were evaluated for their ability to bind to dyed hair versus two negative controls (a non-selected peptide and a blank (no peptide)).
The EC50 values (the concentration at which half the maximum binding was observed by measuring A405 nm) were deduced and given in Table 3.

With “LLSDFHYGDMWDASR-GSSGK (biotin) [Aff15016]” the EC50 was roughly 1000 nM.

QYYQDYQYYHSSR-GSSK (biotin) [Aff15029] showed an EC50 of roughly 1000 nM.

NYNYNYNYQYSSR-GSSGK (biotin) [Aff15011] showed an EC50 greater than 10000 nM.

For “SSNDSNVSWFHYYASGLTSSR-GSSGK-(biotin) [Aff15013]”, the EC50 was roughly 1000 nM.

YHYDYDHYYESSR-GSSGK (biotin) [Aff15030] gave an EC50 of roughly 1000 nM.

“SSNDSNVSWFHYYASGLTSSR-GSSG-SRKSSQKNPHHPKPPKKPTAR-GSSGK (biotin) [Aff15025]” showed an EC50 of roughly 25 nM.

YYYDYYQQDYSSR-GSSGK (biotin) [Aff15027] showed an EC50 of roughly 1000 nM.
